From ChEMBL document CHEMBL4270669 (J Med Chem, 2018)
Activity calls are given as the source filed them. The rule behind the calls is not given here.

Assays:
[1] = target: Serine/threonine-protein kinase mTOR (Homo sapiens, UniProt P42345); test: Binding affinity to mTOR FKBP12 site (unknown origin)
SK-OV-3 [2] = test: Antiproliferative activity against human SKOV3 cells at 10 uM after 72 hrs by ATPlite based assay; type: functional, cell-based
A2058 [3] = test: Induction of cell cycle arrest in human A2058 cells assessed as accumulation at G1 phase at 5 uM after 24 hrs by Hoechst33342-staining based FACS analysis; type: functional
SK-OV-3 [4] = test: Induction of cell cycle arrest in human SKOV3 cells assessed as decrease in cell levels at G2/M phase at 2 uM after 24 hrs by Hoechst33342-staining based FACS analysis; type: functional
A2058 [5] = test: Antiproliferative activity against human A2058 cells at 10 uM after 72 hrs by ATPlite based assay; type: functional, cell-based
A2058 [6] = test: Induction of cell cycle arrest in human A2058 cells assessed as decrease in cell levels at G2/M phase at 5 uM after 24 hrs by Hoechst33342-staining based FACS analysis; type: functional
A2058 [7] = test: Induction of cell cycle arrest in human A2058 cells assessed as decrease in cell levels at S phase at 5 uM after 24 hrs by Hoechst33342-staining based FACS analysis; type: functional
SK-OV-3 [8] = test: Induction of cell cycle arrest in human SKOV3 cells assessed as accumulation at G1 phase at 2 uM after 24 hrs by Hoechst33342-staining based FACS analysis; type: functional
SK-OV-3 [9] = test: Induction of cell cycle arrest in human SKOV3 cells assessed as decrease in cell levels at S phase at 2 uM after 24 hrs by Hoechst33342-staining based FACS analysis; type: functional

Kd [1] [nM] | SMILES | Activity (SK-OV-3 [2]) | Activity (A2058 [3]) | Activity (SK-OV-3 [4]) | Activity (A2058 [5]) | Activity (A2058 [6]) | Activity (A2058 [7]) | Activity (SK-OV-3 [8]) | Activity (SK-OV-3 [9])
2 | CO[C@H]1C[C@@H]2CC[C@@H](C)[C@@](O)(O2)C(=O)C(=O)N2CCCC[C@H]2C(=O)O[C@H]([C@H](C)C[C@@H]2CC[C@@H](OCCO)[C@H](OC)C2)CC(=O)[C@H](C)/C=C(\C)[C@@H](O)[C@@H](OC)C(=O)[C@H](C)C[C@H](C)/C=C/C=C/C=C/1C [EVEROLIMUS] | – | – | – | – | – | – | – | –
– | CO[C@H]1C[C@@H]2CC[C@@H](C)[C@@](O)(O2)C(=O)C(=O)N2CCCC[C@H]2C(=O)O[C@H]([C@H](C)C[C@@H]2CC[C@@H](O)[C@H](OC)C2)CC(=O)[C@H](C)/C=C(\C)[C@@H](O)[C@@H](OC)C(=O)[C@H](C)C[C@H](C)/C=C/C=C/C=C/1C | inactive | Active | Active | Active | Active | Active | Active | Active
